Assay results from patent US9179674B2, “Macrocyclic picolinamide compounds with fungicidal activity” (DOW AGROSCIENCES LLC, priority 2013, dated 2015).
Where two headings read alike, the source gives them in different places.

How the values were obtained:
[1] = system: Mycosphaerella graminicola; Anamorph: Septoria tritici; assay: Leaf Blotch of Wheat fungicidal activity (SEPTTR); format: in vivo; conditions: Zymoseptoria tritici; for pest or weed control at 100 ppm: rate 100 ppm; for pest or weed control at 121.5 g/ha: rate 121.5 g/H
Summary of the method: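 Acetone solutions diluted with nine volumes of water containing 110 ppm Triton X-100, sprayed to run-off on first-leaf wheat seedlings (Yuma), inoculated with S. tritici before or after treatment. Plants held in dew chambers, then in a 20 °C greenhouse. Disease severity (0–100%) scored when untreated plants fully symptomatic; % control relative to untreated.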

[2] = system: Puccinia triticina; assay: Wheat Brown Rust fungicidal activity (PUCCRT); format: in vivo; conditions: Puccinia triticina; for pest or weed control at 100 ppm: rate 100 ppm; for pest or weed control at 121.5 g/ha: rate 121.5 g/H
Summary of the method: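 Yuma wheat seedlings at first-leaf stage sprayed to run-off (acetone solution in water with 110 ppm Triton X-100) or track-sprayed as EC with 0.1% Trycol 5941; inoculated with P. triticina spores before or after treatment. Overnight dark dew at 22° C., then greenhouse 24° C.; disease severity 0–100% gives percent control vs untreated.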

[3] = 24 h, 1 Day Protectant, read-out: Disease control SEPTTR 1DP
[4] = 72 h, 3 Day Curative, read-out: Disease control SEPTTR 3DC
[5] = 24 h, 1 Day Protectant, read-out: Disease control PUCCRT 1DP
[6] = 72 h, 3 Day Curative, read-out: Disease control PUCCRT 3DC

| SMILES | melting point [°C] | pest or weed control at 100 ppm [1, 3] [%] | pest or weed control at 100 ppm [1, 4] [%] | pest or weed control at 100 ppm [2, 5] [%] | pest or weed control at 100 ppm [2, 6] [%] | pest or weed control at 121.5 g/ha [1, 3] [%] | pest or weed control at 121.5 g/ha [2, 5] [%] | pest or weed control at 121.5 g/ha [2, 6] [%] | pest or weed control at 121.5 g/ha [1, 4] [%] |
| --- | --- | --- | --- | --- | --- | --- | --- | --- | --- |
| CCCCCO[C@@H]1[C@@H](CC2CCCC2)COC[C@H](NC(=O)c2nccc(OC)c2O)C(=O)O[C@H]1C [Compound F47] | 109 to 111 | 80 to 100 | 80 to 100 | 80 to 100 | 80 to 100 | – | – | – | – |
| COc1ccnc(C(=O)N[C@H]2COC[C@H](CCc3ccccc3)[C@@H](OCC(C)C)[C@H](C)OC2=O)c1O [Compound F4] | 117 to 120 | 80 to 100 | 80 to 100 | 80 to 100 | 80 to 100 | – | – | – | – |
| Cc1ccc(C[C@H]2COC[C@H](N)C(=O)O[C@@H](C)[C@@H]2OCC(C)C)cc1.Cl | 81 to 84 | – | – | – | – | – | – | – | – |
| CCCCCO[C@@H]1[C@@H](Cc2cccc3ccccc23)COC[C@H](NC(=O)c2nccc(OC)c2OC(C)=O)C(=O)O[C@H]1C [Compound F52] | 85 to 91 | 80 to 100 | 80 to 100 | 80 to 100 | 0 to 80 | – | – | – | – |
| COc1ccnc(C(=O)N[C@H]2COC[C@H](Cc3ccc(Cl)cc3Cl)[C@@H](Oc3ccc(C)cc3)[C@H](C)OC2=O)c1OC(C)=O [Compound F76] | 97 to 101 | 0 to 80 | – | 80 to 100 | – | 80 to 100 | 80 to 100 | 0 to 80 | – |
| COc1ccnc(C(=O)N[C@H]2COC[C@H](Cc3ccc(F)cc3)[C@@H](OC(=O)C(C)C)[C@H](C)OC2=O)c1OCOC(C)=O [Compound F91] | 52 to 56 | 80 to 100 | 80 to 100 | 80 to 100 | 80 to 100 | – | – | – | – |
| COc1ccnc(C(=O)N[C@H]2COC[C@H](Cc3ccc(F)cc3)[C@@H](OC(=O)C(C)C)[C@H](C)OC2=O)c1O [Compound F14] | 66 to 71 | 80 to 100 | 80 to 100 | 80 to 100 | 80 to 100 | – | – | – | – |
| COc1ccnc(C(=O)N[C@H]2COC[C@H](CC3CCCC3)[C@@H](OC(=O)C(C)C)[C@H](C)OC2=O)c1O [Compound F45] | 55 to 59 | 80 to 100 | 80 to 100 | 80 to 100 | 0 to 80 | – | – | – | – |
| CC(C)CO[C@@H]1[C@@H](Cc2cccc3ccccc23)COC[C@H](N(C(=O)OC(C)(C)C)C(=O)OC(C)(C)C)C(=O)O[C@H]1C [Compound F133] | 57 to 63 | – | – | – | – | – | – | – | – |
| COc1ccnc(C(=O)N[C@H]2COC[C@H](CCc3ccccc3)[C@@H](OC3CCCC3)[C@H](C)OC2=O)c1OCOC(C)=O [Compound F81] | 45 to 50 | 80 to 100 | 80 to 100 | 80 to 100 | 80 to 100 | – | – | – | – |
| COc1ccnc(C(=O)N[C@H]2COC[C@H](CCc3ccccc3)[C@@H](OCC(C)C)[C@H](C)OC2=O)c1OC(C)=O [Compound F50] | 61 to 65 | 80 to 100 | 80 to 100 | 80 to 100 | 80 to 100 | – | – | – | – |
| COc1ccnc(C(=O)N[C@H]2COC[C@H](Cc3ccc(Cl)cc3Cl)[C@@H](Oc3ccc(C)cc3)[C@H](C)OC2=O)c1O [Compound F44] | 81 to 85 | – | – | 80 to 100 | – | – | – | – | – |
| CCCCCO[C@@H]1[C@@H](Cc2ccc(C)cc2)COC[C@H](NC(=O)c2nccc(OC)c2O)C(=O)O[C@H]1C [Compound F11] | 97 to 99 | 80 to 100 | 80 to 100 | 80 to 100 | 0 to 80 | – | – | – | – |
| C[C@@H]1OC(=O)[C@@H](N(C(=O)OC(C)(C)C)C(=O)OC(C)(C)C)COC[C@H](Cc2cccc3ccccc23)[C@H]1OC1CCCC1 [Compound F132, tert-butyl N-tert-butoxycarbonyl-N-[(3S,7S,8R,9S)-8-(cyclopentoxy)-9-methyl-7-(1-naphthylmethyl)-2-oxo-1,5-dioxonan-3-yl]carbamate] | 49 to 55 | – | – | – | – | – | – | – | – |
| CC(C)C(=O)O[C@@H]1[C@@H](Cc2cccc3ccccc23)COC[C@H](N(C(=O)OC(C)(C)C)C(=O)OC(C)(C)C)C(=O)O[C@H]1C [Compound F128, [(3S,6S,7R,8S)-3-[bis(tert-butoxycarbonyl)amino]-6-methyl-8-(1-naphthylmethyl)-4-oxo-1,5-dioxonan-7-yl]2-methylpropanoate] | 130 to 132 | – | – | – | – | – | – | – | – |
| C[C@@H]1OC(=O)[C@@H](N(C(=O)OC(C)(C)C)C(=O)OC(C)(C)C)COC[C@H](Cc2ccc(F)cc2)[C@H]1OC(=O)C1CC1 [Compound F136] | 131 to 133 | – | – | – | – | – | – | – | – |
| COc1ccnc(C(=O)N[C@H]2COC[C@H](Cc3ccc(C(F)(F)F)cc3)[C@@H](OC3CCCC3)[C@H](C)OC2=O)c1OC(C)=O [Compound F66] | – | 80 to 100 | 0 to 80 | 80 to 100 | 0 to 80 | 80 to 100 | 80 to 100 | 0 to 80 | 0 to 80 |

Further lines, with some results ahead:

| melting point [°C] | SMILES | pest or weed control at 100 ppm [1, 3] [%] | pest or weed control at 100 ppm [1, 4] [%] | pest or weed control at 100 ppm [2, 5] [%] | pest or weed control at 100 ppm [2, 6] [%] | pest or weed control at 121.5 g/ha [1, 3] [%] | pest or weed control at 121.5 g/ha [2, 5] [%] | pest or weed control at 121.5 g/ha [2, 6] [%] | pest or weed control at 121.5 g/ha [1, 4] [%] |
| --- | --- | --- | --- | --- | --- | --- | --- | --- | --- |
| 60 to 64 | COc1ccnc(C(=O)N[C@H]2COC[C@H](Cc3ccc(Cl)cc3Cl)[C@@H](OCC(C)C)[C@H](C)OC2=O)c1O [Compound F42] | 80 to 100 | 80 to 100 | 80 to 100 | 80 to 100 | – | – | – | – |
| 51 to 58 | COc1ccnc(C(=O)N[C@H]2COC[C@H](CCc3ccccc3)[C@@H](OC3CCCC3)[C@H](C)OC2=O)c1O [Compound F1] | 80 to 100 | 0 to 80 | 80 to 100 | 80 to 100 | – | – | – | – |
| 96 to 98 | CCCCCO[C@@H]1[C@@H](CCc2ccccc2)COC[C@H](NC(=O)c2nccc(OC)c2O)C(=O)O[C@H]1C [Compound F3] | 80 to 100 | 80 to 100 | 80 to 100 | 80 to 100 | – | – | – | – |
| 79 to 82 | COc1ccnc(C(=O)N[C@H]2COC[C@H](Cc3ccc(Cl)cc3Cl)[C@@H](OC(=O)C(C)C)[C@H](C)OC2=O)c1O [Compound F41] | 80 to 100 | 80 to 100 | 80 to 100 | – | – | – | – | – |
| 78 to 80 | COc1ccnc(C(=O)N[C@H]2COC[C@H](Cc3cccc4ccccc34)[C@@H](OCC(C)C)[C@H](C)OC2=O)c1O [Compound F10] | 80 to 100 | 0 to 80 | 80 to 100 | – | – | – | – | – |
| 46 to 51 | CCCCCO[C@@H]1[C@@H](CC2CCCC2)COC[C@H](NC(=O)c2nccc(OC)c2OC(C)=O)C(=O)O[C@H]1C [Compound F79] | 80 to 100 | 80 to 100 | 80 to 100 | 80 to 100 | 80 to 100 | 80 to 100 | 0 to 80 | 80 to 100 |
| 66 to 69 | COc1ccnc(C(=O)N[C@H]2COC[C@H](CC3CCCC3)[C@@H](OC(=O)C(C)C)[C@H](C)OC2=O)c1OC(C)=O [Compound F77] | 80 to 100 | 80 to 100 | 80 to 100 | 80 to 100 | 80 to 100 | 80 to 100 | 80 to 100 | 80 to 100 |
| 50 to 54 | CCCCCO[C@@H]1[C@@H](Cc2ccc(Cl)cc2Cl)COC[C@H](NC(=O)c2nccc(OC)c2O)C(=O)O[C@H]1C [Compound F43] | 80 to 100 | 0 to 80 | 0 to 80 | – | – | – | – | – |
| 83 to 88 | COc1ccnc(C(=O)N[C@H]2COC[C@H](Cc3cccc4ccccc34)[C@@H](Oc3ccc(C)cc3)[C@H](C)OC2=O)c1OCOC(C)=O [Compound F85] | 80 to 100 | 0 to 80 | 80 to 100 | 0 to 80 | – | – | – | – |
| 100 to 103 | CCCCCO[C@@H]1[C@@H](Cc2ccc(C)cc2)COC[C@H](N(C(=O)OC(C)(C)C)C(=O)OC(C)(C)C)C(=O)O[C@H]1C [Compound F134] | – | – | – | – | – | – | – | – |
| 70 to 74 | COc1ccnc(C(=O)N[C@H]2COC[C@H](Cc3ccc(Cl)cc3Cl)[C@@H](Oc3ccc(C)cc3)[C@H](C)OC2=O)c1OCOC(C)=O [Compound F113] | – | – | – | – | – | 80 to 100 | – | – |
